This assay deals with BDF1 mice, colon carcinoma 38 sc, T/C %. Put plainly: NCI In Vivo Anticancer Drug Screen. Data for tumor model Colon Carcinoma 38 (subcutaneous) in B6D2F1 (BDF1) mice. The gist of the method: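 Compound antitumor activity was assessed in mice carrying transplantable tumors. Survival or tumor size was recorded, and each value is the treated-group measurement divided by that of the vehicle-treated control group.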

The mark [1] stands for this setting: endpoint: median tumor weight (est.), dose: 100.0 mg/kg/injection, schedule: Q07DX002 (ip), vehicle: saline with Tween-80, higher = larger tumour.
The mark [2] stands for this setting: endpoint: median tumor weight (est.), dose: 200.0 mg/kg/injection, schedule: Q07DX002 (ip), vehicle: saline with Tween-80, higher = larger tumour.
Setting [3] is: endpoint: median tumor weight (est.), dose: 25.0 mg/kg/injection, schedule: Q07DX002 (ip), vehicle: Klucel (hydroxypropylcellulose) (HPC), higher = larger tumour.
The mark [4] stands for this setting: endpoint: median tumor weight (est.), dose: 25.0 mg/kg/injection, schedule: Q07DX003 (ip), vehicle: saline with Tween-80, higher = larger tumour.
Setting [5] is: endpoint: median tumor weight (est.), dose: 50.0 mg/kg/injection, schedule: Q07DX002 (ip), vehicle: Klucel (hydroxypropylcellulose) (HPC), higher = larger tumour.
Where [6] appears, read: endpoint: median tumor weight (est.), dose: 50.0 mg/kg/injection, schedule: Q07DX003 (ip), vehicle: Klucel (hydroxypropylcellulose) (HPC), higher = larger tumour.
Setting [7] is: endpoint: median tumor weight (est.), dose: 200.0 mg/kg/injection, schedule: Q07DX003 (ip), vehicle: Klucel (hydroxypropylcellulose) (HPC), higher = larger tumour.
The mark [8] stands for this setting: endpoint: median tumor weight (est.), dose: 200.0 mg/kg/injection, schedule: Q07DX003 (ip), vehicle: saline with Tween-80, higher = larger tumour.
[9] abbreviates: endpoint: median tumor weight (est.), dose: 400.0 mg/kg/injection, schedule: Q07DX003 (ip), vehicle: Klucel (hydroxypropylcellulose) (HPC), higher = larger tumour.
Where [10] appears, read: endpoint: median tumor weight (est.), dose: 400.0 mg/kg/injection, schedule: Q07DX003 (ip), vehicle: saline with Tween-80, higher = larger tumour.
Setting [11] is: endpoint: median tumor weight (est.), dose: 25.0 mg/kg/injection, schedule: Q07DX002 (ip), vehicle: saline, higher = larger tumour.

Values joined by “and” are separate entries in the source; they are usually repeats but may differ in a detail not shown here. Identical values can stand only once. Inconclusive results are not listed.

Turning to `CC(C)CC(NC(=O)CF)C(=O)O` (configuration not stated), the T/C (endpoint: median tumor weight (est.), dose: 0.62 mg/kg/injection, schedule: Q07DX002 (ip), vehicle: saline, higher = larger tumour) was 46 % of control; the T/C (endpoint: median tumor weight (est.), dose: 0.63 mg/kg/injection, schedule: Q07DX002 (ip), vehicle: saline, higher = larger tumour) is 75 % of control; the T/C (endpoint: median tumor weight (est.), dose: 1.25 mg/kg/injection, schedule: Q07DX002 (ip), vehicle: saline, higher = larger tumour) is 94 % of control and 96 % of control; the T/C (endpoint: median tumor weight (est.), dose: 5.0 mg/kg/injection, schedule: Q07DX002 (ip), vehicle: saline, higher = larger tumour) was 74 % of control and 76 % of control; the T/C (endpoint: median tumor weight (est.), dose: 10.0 mg/kg/injection, schedule: Q07DX002 (ip), vehicle: saline, higher = larger tumour) is 71 % of control and 92 % of control.

As for `COC1=C(OC)C(=O)C(C/C=C(\C)CC/C=C(\C)CC/C=C(\C)CC/C=C(\C)CC/C=C(\C)CC/C=C(\C)CC/C=C(\C)CC/C=C(\C)CC/C=C(\C)CCC=C(C)C)=C(C)C1=O`, the T/C (endpoint: median tumor weight (est.), dose: 12.5 mg/kg/injection, schedule: Q07DX002 (ip), vehicle: saline with Tween-80, higher = larger tumour) is 202 % of control; the T/C (endpoint: median tumor weight (est.), dose: 50.0 mg/kg/injection, schedule: Q07DX002 (ip), vehicle: saline with Tween-80, higher = larger tumour) is 86 % of control; the T/C under setting [1] is 83 % of control; the T/C under setting [2] was 121 % of control; the T/C (endpoint: median tumor weight (est.), dose: 400.0 mg/kg/injection, schedule: Q07DX002 (ip), vehicle: saline with Tween-80, higher = larger tumour) is 110 % of control.

In the case of `CCN(CC)CCOC(=O)Cc1cccc2c(=O)cc(-c3ccc(Cl)cc3)oc12`, the T/C reads like this: under setting [1], 48 % of control; under setting [2], 4 % of control.

Turning to `OC(CBr)C(O)C(O)C(O)CBr` (configuration not stated), the T/C reads like this: under setting [3], 56 % of control; under setting [4], 85 % of control; under setting [5], 103 % of control; under setting [6], 75 % of control; (endpoint: median tumor weight (est.), dose: 100.0 mg/kg/injection, schedule: Q07DX003 (ip), vehicle: Klucel (hydroxypropylcellulose) (HPC), higher = larger tumour) 122 % of control; under setting [7], 32 % of control. For the same compound, the T/C under setting [8] was 123 % of control, the T/C under setting [9] was 7 % of control and the T/C under setting [10] was 105 % of control.

For `c1cc(-c2cc3ccc(C4=NCCN4)cc3[nH]2)ccc1C1=NCCN1`, the T/C was 84 % of control (endpoint: median tumor weight (est.), dose: 6.25 mg/kg/injection, schedule: Q07DX002 (ip), vehicle: saline, higher = larger tumour); 90 % of control (endpoint: median tumor weight (est.), dose: 6.25 mg/kg/injection, schedule: Q07DX002 (ip), vehicle: suspension in saline, higher = larger tumour); 92 % of control (endpoint: median tumor weight (est.), dose: 12.5 mg/kg/injection, schedule: Q07DX002 (ip), vehicle: saline, higher = larger tumour); 87 % of control (endpoint: median tumor weight (est.), dose: 12.5 mg/kg/injection, schedule: Q07DX002 (ip), vehicle: suspension in saline, higher = larger tumour); 100 % of control under setting [11]; 105 % of control (endpoint: median tumor weight (est.), dose: 25.0 mg/kg/injection, schedule: Q07DX002 (ip), vehicle: suspension in saline, higher = larger tumour). Moreover, the T/C was 84 % of control (endpoint: median tumor weight (est.), dose: 50.0 mg/kg/injection, schedule: Q07DX002 (ip), vehicle: saline, higher = larger tumour) and 98 % of control (endpoint: median tumor weight (est.), dose: 50.0 mg/kg/injection, schedule: Q07DX002 (ip), vehicle: suspension in saline, higher = larger tumour).

Consider `CC(CN1CC(=O)NC(=O)C1)N1CC(=O)NC(=O)C1` (configuration not stated), for which the T/C (endpoint: median tumor weight (est.), dose: 25.0 mg/kg/injection, schedule: Q07DX003 (ip), vehicle: Klucel (hydroxypropylcellulose) (HPC), higher = larger tumour) was 84 % of control and 89 % of control; the T/C under setting [6] is 73 % of control and 85 % of control; the T/C under setting [7] is 51 % of control and 54 % of control; the T/C under setting [9] was 9 % of control and 15 % of control.

As to `NC(=O)c1ncn(C2OC(CO)C(O)C2O)c1O` (configuration not stated), the T/C runs as follows: under setting [3], 118 % of control; (endpoint: median tumor weight (est.), dose: 28.0 mg/kg/injection, schedule: Q07DX002 (ip), vehicle: Klucel (hydroxypropylcellulose) (HPC), higher = larger tumour) 51 % of control; under setting [5], 90 % of control; (endpoint: median tumor weight (est.), dose: 56.0 mg/kg/injection, schedule: Q07DX002 (ip), vehicle: Klucel (hydroxypropylcellulose) (HPC), higher = larger tumour) 48 % of control; (endpoint: median tumor weight (est.), dose: 112.0 mg/kg/injection, schedule: Q07DX002 (ip), vehicle: Klucel (hydroxypropylcellulose) (HPC), higher = larger tumour) 79 % of control; (endpoint: median tumor weight (est.), dose: 200.0 mg/kg/injection, schedule: Q07DX002 (ip), vehicle: Klucel (hydroxypropylcellulose) (HPC), higher = larger tumour) 114 % of control and 98 % of control. Moreover, the T/C runs as follows: (endpoint: median tumor weight (est.), dose: 225.0 mg/kg/injection, schedule: Q07DX002 (ip), vehicle: Klucel (hydroxypropylcellulose) (HPC), higher = larger tumour) 68 % of control; (endpoint: median tumor weight (est.), dose: 400.0 mg/kg/injection, schedule: Q07DX002 (ip), vehicle: Klucel (hydroxypropylcellulose) (HPC), higher = larger tumour) 105 % of control and 107 % of control; (endpoint: median tumor weight (est.), dose: 450.0 mg/kg/injection, schedule: Q07DX002 (ip), vehicle: Klucel (hydroxypropylcellulose) (HPC), higher = larger tumour) 61 % of control; (endpoint: median tumor weight (est.), dose: 800.0 mg/kg/injection, schedule: Q07DX002 (ip), vehicle: Klucel (hydroxypropylcellulose) (HPC), higher = larger tumour) 75 % of control; (endpoint: median tumor weight (est.), dose: 900.0 mg/kg/injection, schedule: Q07DX002 (ip), vehicle: Klucel (hydroxypropylcellulose) (HPC), higher = larger tumour) 61 % of control.

In the case of `CO[C@H]1C[C@@H]2CC[C@@H](C)[C@@](O)(O2)C(=O)C(=O)N2CCCC[C@H]2C(=O)O[C@H]([C@H](C)C[C@@H]2CC[C@@H](O)[C@H](OC)C2)CC(=O)[C@H](C)C=C(C)[C@@H](O)[C@@H](OC)C(=O)[C@H](C)C[C@H](C)/C=C/C=C/C=C1C`, the T/C (endpoint: median tumor weight (est.), dose: 12.5 mg/kg/injection, schedule: Q07DX003 (ip), vehicle: saline with Tween-80, higher = larger tumour) was 40 % of control and 45 % of control; the T/C under setting [4] is 26 % of control and 45 % of control; the T/C (endpoint: median tumor weight (est.), dose: 50.0 mg/kg/injection, schedule: Q07DX003 (ip), vehicle: saline with Tween-80, higher = larger tumour) was 20 % of control and 39 % of control; the T/C (endpoint: median tumor weight (est.), dose: 100.0 mg/kg/injection, schedule: Q07DX003 (ip), vehicle: saline with Tween-80, higher = larger tumour) is 33 % of control; the T/C under setting [8] was 14 % of control and 25 % of control; the T/C under setting [10] is 14 % of control and 23 % of control.

As to `C[CH2][Pb]([CH2]C)([CH2]C)[O]C(=O)COc1ccccc1`, the T/C reads like this: (endpoint: median tumor weight (est.), dose: 0.75 mg/kg/injection, schedule: Q07DX002 (ip), vehicle: Klucel (hydroxypropylcellulose) (HPC), higher = larger tumour) 166 % of control; (endpoint: median tumor weight (est.), dose: 3.0 mg/kg/injection, schedule: Q07DX002 (ip), vehicle: Klucel (hydroxypropylcellulose) (HPC), higher = larger tumour) 151 % of control; (endpoint: median tumor weight (est.), dose: 6.0 mg/kg/injection, schedule: Q07DX002 (ip), vehicle: Klucel (hydroxypropylcellulose) (HPC), higher = larger tumour) 118 % of control; (endpoint: median tumor weight (est.), dose: 12.0 mg/kg/injection, schedule: Q07DX002 (ip), vehicle: Klucel (hydroxypropylcellulose) (HPC), higher = larger tumour) 176 % of control.

Take `Cc1cc(=NO)cc(C)n1O`: the T/C reads like this: (endpoint: median tumor weight (est.), dose: 50.0 mg/kg/injection, schedule: Q07DX002 (ip), vehicle: distilled water + alcohol, higher = larger tumour) 80 % of control; (endpoint: median tumor weight (est.), dose: 100.0 mg/kg/injection, schedule: Q07DX002 (ip), vehicle: distilled water + alcohol, higher = larger tumour) 80 % of control; (endpoint: median tumor weight (est.), dose: 200.0 mg/kg/injection, schedule: Q07DX002 (ip), vehicle: distilled water + alcohol, higher = larger tumour) 98 % of control; (endpoint: median tumor weight (est.), dose: 400.0 mg/kg/injection, schedule: Q07DX002 (ip), vehicle: distilled water + alcohol, higher = larger tumour) 106 % of control; (endpoint: median tumor weight (est.), dose: 800.0 mg/kg/injection, schedule: Q07DX002 (ip), vehicle: distilled water + alcohol, higher = larger tumour) 86 % of control.

Take `CCCC(=O)Nc1ncnc2c1ncn2C1OC2COP(=O)(O)OC2C1OC(=O)CCC` (configuration not stated): the T/C by setting is: under setting [11], 84 % of control and 103 % of control; (endpoint: median tumor weight (est.), dose: 100.0 mg/kg/injection, schedule: Q07DX002 (ip), vehicle: saline, higher = larger tumour) 101 % of control and 106 % of control; (endpoint: median tumor weight (est.), dose: 800.0 mg/kg/injection, schedule: Q07DX002 (ip), vehicle: saline, higher = larger tumour) 75 % of control and 96 % of control.

In the case of `CCCCNC(C)[C@]1(O)Cc2c(O)c3c(c(O)c2[C@@H](OC2CC(N)C(O)C(C)O2)C1)C(=O)c1c(OC)cccc1C3=O` (some centres not stated), the T/C (endpoint: median survival time, dose: 16.0 mg/kg/injection, schedule: Q07DX002 (sc), vehicle: saline, higher = longer survival) was 113 % of control; the T/C (endpoint: median survival time, dose: 26.0 mg/kg/injection, schedule: Q07DX002 (sc), vehicle: saline, higher = longer survival) was 151 % of control; the T/C (endpoint: median tumor weight (est.), dose: 3.38 mg/kg/injection, schedule: Q07DX002 (ip), vehicle: saline, higher = larger tumour) is 89 % of control; the T/C (endpoint: median tumor weight (est.), dose: 6.75 mg/kg/injection, schedule: Q07DX002 (ip), vehicle: saline, higher = larger tumour) is 88 % of control; the T/C (endpoint: median tumor weight (est.), dose: 13.5 mg/kg/injection, schedule: Q07DX002 (ip), vehicle: saline, higher = larger tumour) is 81 % of control.
